Test results as given in patent US6706663B2, “Herbicidal 3-heterocyclic substituted benzisothiazole and benzisoxazole compounds” (Wyeth, priority 2000, dated 2004).

How the values were obtained:
[1] = tested on: GLXMAW (Soybean, Williams); test: Preemergence herbicidal evaluation; format: in vivo, Glycine max, (L.) Merr. cv Williams; settings: preemergence, rated 4-5 weeks after treatment
CYPIR (Cyperus iria) [2] = test: Flooded paddy, postemergence weed control; format: in vivo; settings: postemergence weeds, rated 3-4 weeks after treatment
Description: (§1) Results of herbicide evaluation are expressed on a rating scale (0-9). The scale is based upon a visual observation of plant stand, vigor, malformation, size, chlorosis and overall plant appearance as compared with a control.
(§2) Plastic containers containing weeds which are 3 to 5 cm tall and rice seedlings at the 1.5 to 2.5 leaf stage are flooded with water. The water is maintained at 1.5 to 3 cm above the soil surface for the duration of the experiment. Test compounds are applied as aqueous/acetone mixtures 50/50 v/v directly into the flood water to provide the equivalent of about 0.0320 to 0.2500 kg/ha of active ingredient. The treated containers are placed on greenhouse benches and cared for in accordance with conventional greenhouse procedures. Three to four weeks after treatment, the test is terminated and each container is examined and herbicidal effect rated according to the rating system provided in Example 87. The compounds evaluated are identified in Example 87 and plant species used are identified in Example 89.

ORYSAT (Rice, Tebonnet) [3] = test: Preemergence herbicidal evaluation; format: in vivo, Oryza sativa, (L.) Tebonnet; settings: preemergence, rated 4-5 weeks after treatment
[4] = tested on: CYPSE (Cyperus serotinus); test: Flooded paddy, postemergence weed control; format: in vivo, Rottb.; settings: postemergence weeds, rated 3-4 weeks after treatment
Description: as §1, §2

[5] = tested on: AMBEL (Ambrosia artemisifolia); test: Postemergence herbicidal evaluation; format: in vivo, L.
How it was run: (§3)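 Seedlings grown for about two weeks were sprayed postemergence and then kept under standard greenhouse care. Injury was rated visually 4–5 weeks after treatment on a 0–9 scale against untreated controls, and ratings from repeat tests were averaged.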

[6] = tested on: CASOB (Cassia obtusifolia); test: Postemergence herbicidal evaluation; format: in vivo, L.
How it was run: as §3

[7] = tested on: CHEAL (Chenopodium album); test: Postemergence herbicidal evaluation; format: in vivo, L.
How it was run: as §3

CYPIR (Cyperus iria) [8] = test: Flooded paddy, preemergence weed control; format: in vivo; settings: rated 3-4 weeks after treatment, 0-9 rating scale
How it was run: (§4)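 Scoring used a 0-9 visual scale relative to control. Before that, seeds or propagules were planted shallowly in silt loam and flooded to 1.5–3 cm, a depth maintained throughout, with greenhouse care during the test.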

[9] = tested on: ECHORC (Echinochloa oryzoides); test: Flooded paddy, preemergence weed control; format: in vivo, Echinochloa oryzoides (Ard.) Fritsch.; settings: rated 3-4 weeks after treatment, 0-9 rating scale
How it was run: as §4

[10] = tested on: TRZAWR (Wheat, Winter, cv Riband); test: Preemergence herbicidal evaluation; format: in vivo, Triticum aestivum; settings: preemergence, rated 4-5 weeks after treatment
How it was run: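 Test compound is applied in aqueous acetone to cups just after seeding. Cups are watered and maintained on greenhouse benches. Each cup is scored 0–9 by eye relative to a control after four to five weeks.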

[11] = tested on: IPOHE (Ipomoea hederacea); test: Preemergence herbicidal evaluation; format: in vivo, (L.) Jacq.; settings: preemergence, rated 4-5 weeks after treatment
[12] = tested on: MOOVA (Monochoria vaginalis); test: Flooded paddy, postemergence weed control; format: in vivo, Presl.; settings: postemergence weeds, rated 3-4 weeks after treatment
Description: as §1, §2

[13] = tested on: ECHCG (Echinochloa crus-galli); test: Postemergence herbicidal evaluation; format: in vivo, (L.) Beau
How it was run: as §3

ORYSAT (Rice, Tebonnet) [14] = test: Flooded paddy, post-transplant and postemergence rice tolerance; format: in vivo, Oryza sativa, (L.) Tebonnet; settings: post-transplant rice, rated 3-4 weeks after treatment
Description: as §1, §2

ZEAMX (Corn, Field) = test: Postemergence herbicidal evaluation; format: in vivo, Zea mays, L.
How it was run: as §3

[15] = tested on: ECHORC (Echinochloa oryzoides); test: Flooded paddy, postemergence weed control; format: in vivo, Echinochloa oryzoides (Ard.) Fritsch.; settings: postemergence weeds, rated 3-4 weeks after treatment
Description: as §1, §2

[16] = tested on: SAGPY (Sagittaria pygmaea); test: Flooded paddy, preemergence weed control; format: in vivo, L.; settings: rated 3-4 weeks after treatment, 0-9 rating scale
How it was run: as §4

[17] = tested on: SAGPY (Sagittaria pygmaea); test: Flooded paddy, postemergence weed control; format: in vivo, L.; settings: postemergence weeds, rated 3-4 weeks after treatment
Description: as §1, §2

ORYSAT (Rice, Tebonnet) [18] = test: Postemergence herbicidal evaluation; format: in vivo, Oryza sativa, (L.) Tebonnet
How it was run: as §3

In the case of CCc1cc(-c2nsc3ccc(-n4c(=O)cc(C(F)(F)F)n(C)c4=O)cc23)c(CC)s1 [Compound 8, 3-[3-(2,5-diethyl-3-thienyl)-1,2-benzisothiazol-5-yl]-1-methyl-6-(trifluoromethyl)uracil], the “GLXMAW preemergence herbicidal rating” value ([1]; Rate 0.0620 kg/ha) is reported as 0.0, the “GLXMAW preemergence herbicidal rating” value ([1]; Rate 0.1250 kg/ha) is reported as 0.0 and the “GLXMAW preemergence herbicidal rating” value ([1]; Rate 0.2500 kg/ha) is reported as 0.0. For the same molecule, the “herbicide rating (0-9) CYPIR” value (CYPIR (Cyperus iria) [2]; 0.0320 kg/ha into flood water) was 9.0, the “herbicide rating (0-9) CYPIR” value (CYPIR (Cyperus iria) [2]; 0.0620 kg/ha into flood water) was 9.0 and the “herbicide rating (0-9) CYPIR” value (CYPIR (Cyperus iria) [2]; 0.1250 kg/ha into flood water) was 9.0. For the same molecule, the “ORYSAT preemergence herbicidal rating” value (ORYSAT (Rice, Tebonnet) [3]; Rate 0.0620 kg/ha) was 0.0, the “ORYSAT preemergence herbicidal rating” value (ORYSAT (Rice, Tebonnet) [3]; Rate 0.1250 kg/ha) was 0.0 and the “ORYSAT preemergence herbicidal rating” value (ORYSAT (Rice, Tebonnet) [3]; Rate 0.2500 kg/ha) was 0.0. For the same molecule, the “herbicide rating (0-9) CYPSE” value ([4]; 0.0320 kg/ha into flood water) was 0.0, the “herbicide rating (0-9) CYPSE” value ([4]; 0.0620 kg/ha into flood water) was 0.0 and the “herbicide rating (0-9) CYPSE” value ([4]; 0.1250 kg/ha into flood water) was 0.0. For the same molecule, the “Postemergence herbicidal rating, AMBEL” value ([5]; rate 0.0320 kg/ha) was 3.0, the “Postemergence herbicidal rating, AMBEL” value ([5]; rate 0.0620 kg/ha) was 6.0 and the “Postemergence herbicidal rating, CASOB” value ([6]; rate 0.0320 kg/ha) was 1.0. For the same molecule, the “Postemergence herbicidal rating, CASOB” value ([6]; rate 0.0620 kg/ha) was 1.0, the “Postemergence herbicidal rating, CHEAL” value ([7]; rate 0.0320 kg/ha) was 4.0 and the “Postemergence herbicidal rating, CHEAL” value ([7]; rate 0.0620 kg/ha) was 7.0. The “herbicidal rating, CYPIR” value (CYPIR (Cyperus iria) [8]; rate 0.0080 kg/ha) was 8.5, the “herbicidal rating, CYPIR” value (CYPIR (Cyperus iria) [8]; rate 0.0320 kg/ha) was 9.0 and the “herbicidal rating, CYPIR” value (CYPIR (Cyperus iria) [8]; rate 0.1250 kg/ha) was 9.0. The “herbicidal rating, ECHORC” value ([9]; rate 0.0080 kg/ha) was 2.0, the “herbicidal rating, ECHORC” value ([9]; rate 0.0320 kg/ha) was 9.0 and the “herbicidal rating, ECHORC” value ([9]; rate 0.1250 kg/ha) was 9.0. For the same molecule, the “TRZAWR preemergence herbicidal rating” value ([10]; Rate 0.0620 kg/ha) was 0.0, the “TRZAWR preemergence herbicidal rating” value ([10]; Rate 0.1250 kg/ha) was 0.0 and the “TRZAWR preemergence herbicidal rating” value ([10]; Rate 0.2500 kg/ha) was 0.0. For the same molecule, the “IPOHE preemergence herbicidal rating” value ([11]; Rate 0.0620 kg/ha) was 0.0, the “IPOHE preemergence herbicidal rating” value ([11]; Rate 0.1250 kg/ha) was 0.0 and the “IPOHE preemergence herbicidal rating” value ([11]; Rate 0.2500 kg/ha) was 1.0. The “herbicide rating (0-9) MOOVA” value ([12]; 0.0320 kg/ha into flood water) was 4.5, the “herbicide rating (0-9) MOOVA” value ([12]; 0.0620 kg/ha into flood water) was 4.5 and the “herbicide rating (0-9) MOOVA” value ([12]; 0.1250 kg/ha into flood water) was 5.5. The “Postemergence herbicidal rating, ECHCG” value ([13]; rate 0.0320 kg/ha) was 2.0, the “Postemergence herbicidal rating, ECHCG” value ([13]; rate 0.0620 kg/ha) was 2.0 and the “herbicide rating (0-9) ORYSAT (rice tolerance)” value (“herbicide rating (0-9) ORYSAT” below) (ORYSAT (Rice, Tebonnet) [14]; 0.0320 kg/ha into flood water) was 1.0. For the same molecule, the “herbicide rating (0-9) ORYSAT” value (ORYSAT (Rice, Tebonnet) [14]; 0.0620 kg/ha into flood water) was 2.0, the “herbicide rating (0-9) ORYSAT” value (ORYSAT (Rice, Tebonnet) [14]; 0.1250 kg/ha into flood water) was 2.0 and the “Postemergence herbicidal rating, ZEAMX” value (ZEAMX (Corn, Field); rate 0.0320 kg/ha) was 5.0. For the same molecule, the “Postemergence herbicidal rating, ZEAMX” value (ZEAMX (Corn, Field); rate 0.0620 kg/ha) was 5.0, the “herbicide rating (0-9) ECHORC” value ([15]; 0.0320 kg/ha into flood water) was 3.5 and the “herbicide rating (0-9) ECHORC” value ([15]; 0.0620 kg/ha into flood water) was 4.0. The “herbicide rating (0-9) ECHORC” value ([15]; 0.1250 kg/ha into flood water) was 5.0, the “herbicidal rating, SAGPY” value ([16]; rate 0.0080 kg/ha) was 0.0 and the “herbicidal rating, SAGPY” value ([16]; rate 0.0320 kg/ha) was 0.0. For the same molecule, the “herbicidal rating, SAGPY” value ([16]; rate 0.1250 kg/ha) was 0.0, the “herbicide rating (0-9) SAGPY” value ([17]; 0.0320 kg/ha into flood water) was 0.0 and the “herbicide rating (0-9) SAGPY” value ([17]; 0.0620 kg/ha into flood water) was 0.0. The “herbicide rating (0-9) SAGPY” value ([17]; 0.1250 kg/ha into flood water) was 1.0, the “Postemergence herbicidal rating, ORYSAT” value (ORYSAT (Rice, Tebonnet) [18]; rate 0.0320 kg/ha) was 3.0 and the “Postemergence herbicidal rating, ORYSAT” value (ORYSAT (Rice, Tebonnet) [18]; rate 0.0620 kg/ha) was 3.0.
